In ChEMBL document CHEMBL4152230, “Discovery of N-{3-[(ethanimidoylamino)methyl]benzyl}-l-prolinamide dihydrochloride: A new potent and selective inhibitor of the inducible nitric oxide synthase as a promising agent for the therapy of malignant glioma” (Eur J Med Chem, 2018):
Calls of active or inactive are those of the source. The calls are words filed in the database; no cut-off is given here.

How the values were obtained:
[1] = Half life in human plasma by HPLC analysis; type: ADME, cell-free
C6 [2] = experiment: Cytotoxicity against rat C6 cells assessed as LDH release at 0.5 mM after 72 hrs by CytoTox96 non-radioactive assay (reference value: 5.41%); type: functional
C6 [3] = experiment: Cell cycle arrest in rat C6 cells assessed as accumulation at S phase at 1.5 mM after 72 hrs by propidium iodide staining based flow cytometry (reference value: 22.64%); type: functional
[4] = Half life in pH 9 NaOH solution after 24 hrs by HPLC analysis; type: physicochemical; settings: pH 9, pH 9
C6 [5] = experiment: Cytotoxicity against rat C6 cells assessed as cell proliferation at 1 mM after 72 hrs by MTT assay relative to control; type: functional; settings: C6, 72 h, read-out: Activity
C6 [6] = experiment: Cytotoxicity against rat C6 cells assessed as LDH release at 1.5 mM after 72 hrs by CytoTox96 non-radioactive assay (reference value: 5.41%); type: functional
C6 [7] = experiment: Cytotoxicity against rat C6 cells assessed as cell proliferation at 1.5 mM after 24 hrs by MTT assay relative to control; type: functional; settings: C6, 24 h, read-out: Activity
[8] = Cytotoxicity against rat CTX/TNA2 cells assessed as inhibition of cell proliferation at 0.25 to 2 mM up to 72 hrs by MTT assay; type: cell-based; settings: 2000 µM
C6 [9] = experiment: Cytotoxicity against rat C6 cells assessed as cell proliferation at 1 mM after 24 hrs by MTT assay relative to control; type: functional; settings: C6, 24 h, read-out: Activity
[10] = biological target: Nitric oxide synthase, inducible (Rattus norvegicus) (UniProt Q06518); experiment: Ex vivo inhibition of iNOS in mesenteric vascular arteries isolated from LPS-induced septic shock Sprague-Dawley rat model assessed as increase in noradrenaline-mediated vasoconstriction by measuring changes in perfusion pressure at 0.06 uM preincubated for 30 mins followed by noradrenaline treatment
[11] = Half life in pH 7.4 PBS buffer after 24 hrs by HPLC analysis; type: physicochemical; settings: pH 7.4, pH 7.4
C6 [12] = experiment: Cell cycle arrest in rat C6 cells assessed as accumulation at G1 phase at 1.5 mM after 72 hrs by propidium iodide staining based flow cytometry (reference value: 63.97%); type: functional
[13] = Selectivity index, ratio of IC50 for recombinant bovine eNOS to IC50 for recombinant mouse iNOS
C6 [14] = experiment: Cytotoxicity against rat C6 cells assessed as LDH release at 0.75 mM after 72 hrs by CytoTox96 non-radioactive assay (reference value: 5.41%); type: functional
C6 [15] = experiment: Cytotoxicity against rat C6 cells assessed as inhibition of cell proliferation after 24 to 48 hrs by MTT assay; type: functional, cell-based
[16] = Cytotoxicity against rat CTX/TNA2 cells assessed as cell proliferation at 1 mM after 48 hrs by MTT assay relative to control; type: cell-based; settings: read-out: Activity
Nitric oxide synthase 1 = Nitric oxide synthase 1 (Rattus norvegicus, UniProt P29476); experiment: Inhibition of recombinant rat nNOS using [3H]L-arginine as substrate preincubated for 15 mins followed by NADPH addition measured after 20 mins in presence of FMN/FAD by liquid scintillation counting method
C6 [17] = experiment: Cytotoxicity against rat C6 cells assessed as cell proliferation at 0.25 mM after 48 hrs by MTT assay relative to control; type: functional; settings: C6, 48 h, read-out: Activity
[18] = Selectivity ratio of IC50 for recombinant rat nNOS to IC50 for recombinant mouse iNOS
[19] = Cytotoxicity against rat CTX/TNA2 cells assessed as cell proliferation at 1 mM after 24 hrs by MTT assay relative to control; type: cell-based; settings: read-out: Activity
C6 [20] = experiment: Cytotoxicity against rat C6 cells assessed as LDH release at 2 mM after 72 hrs by CytoTox96 non-radioactive assay (reference value: 5.41%); type: functional
C6 [21] = experiment: Cytotoxicity against rat C6 cells assessed as LDH release at 0.25 mM after 72 hrs by CytoTox96 non-radioactive assay (reference value: 5.41%); type: functional
C6 [22] = experiment: Cytotoxicity against rat C6 cells assessed as cell proliferation at 1.5 mM after 72 hrs by MTT assay relative to control; type: functional; settings: C6, 72 h, read-out: Activity
[23] = biological target: T1, Nitric oxide synthase, inducible (Mus musculus, UniProt P29477); experiment: Inhibition of recombinant mouse iNOS using [3H]L-arginine as substrate preincubated for 15 mins followed by NADPH addition measured after 20 mins in presence of FMN/FAD by liquid scintillation counting method
T1 sequence (P29477 whole entry): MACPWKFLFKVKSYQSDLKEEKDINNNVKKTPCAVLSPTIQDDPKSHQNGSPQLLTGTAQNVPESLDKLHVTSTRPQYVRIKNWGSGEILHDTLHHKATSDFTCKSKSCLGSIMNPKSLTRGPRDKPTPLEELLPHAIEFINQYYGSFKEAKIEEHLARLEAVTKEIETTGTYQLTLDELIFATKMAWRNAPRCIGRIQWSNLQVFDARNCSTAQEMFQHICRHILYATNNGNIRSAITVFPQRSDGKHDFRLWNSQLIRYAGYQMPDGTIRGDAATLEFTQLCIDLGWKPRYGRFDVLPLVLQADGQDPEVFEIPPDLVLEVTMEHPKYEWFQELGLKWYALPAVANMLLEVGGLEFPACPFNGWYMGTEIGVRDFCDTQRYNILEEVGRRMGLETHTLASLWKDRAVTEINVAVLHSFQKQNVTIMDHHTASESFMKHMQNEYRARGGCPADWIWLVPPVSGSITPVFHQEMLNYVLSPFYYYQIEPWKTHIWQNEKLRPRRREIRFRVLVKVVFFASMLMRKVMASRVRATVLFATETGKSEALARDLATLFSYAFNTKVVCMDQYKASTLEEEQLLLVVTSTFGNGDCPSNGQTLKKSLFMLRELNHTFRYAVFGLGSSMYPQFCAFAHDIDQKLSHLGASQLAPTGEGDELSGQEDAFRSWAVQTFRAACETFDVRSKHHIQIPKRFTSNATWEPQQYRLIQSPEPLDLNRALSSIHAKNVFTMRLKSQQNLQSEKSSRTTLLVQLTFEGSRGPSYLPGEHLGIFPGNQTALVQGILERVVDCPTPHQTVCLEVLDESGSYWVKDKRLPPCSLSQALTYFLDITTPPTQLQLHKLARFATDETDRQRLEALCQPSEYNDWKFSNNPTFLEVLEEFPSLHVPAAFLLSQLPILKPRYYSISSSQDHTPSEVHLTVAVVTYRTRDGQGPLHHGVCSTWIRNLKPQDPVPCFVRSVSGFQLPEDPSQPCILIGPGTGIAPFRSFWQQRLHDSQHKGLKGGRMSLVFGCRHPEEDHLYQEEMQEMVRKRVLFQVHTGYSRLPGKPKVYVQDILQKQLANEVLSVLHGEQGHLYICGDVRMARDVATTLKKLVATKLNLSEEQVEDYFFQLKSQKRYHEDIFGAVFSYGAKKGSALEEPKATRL

C6 [24] = experiment: Cytotoxicity against rat C6 cells assessed as cell proliferation at 2 mM after 24 hrs by MTT assay relative to control; type: functional; settings: C6, 24 h, read-out: Activity
[25] = Half life in pH 2 HCl after 24 hrs by HPLC analysis; type: physicochemical; settings: HCl solution, pH 2, pH 2

Nitric oxide synthase, inducible (Rattus norvegicus), sequence (Q06518 whole entry, the tested form may be a part): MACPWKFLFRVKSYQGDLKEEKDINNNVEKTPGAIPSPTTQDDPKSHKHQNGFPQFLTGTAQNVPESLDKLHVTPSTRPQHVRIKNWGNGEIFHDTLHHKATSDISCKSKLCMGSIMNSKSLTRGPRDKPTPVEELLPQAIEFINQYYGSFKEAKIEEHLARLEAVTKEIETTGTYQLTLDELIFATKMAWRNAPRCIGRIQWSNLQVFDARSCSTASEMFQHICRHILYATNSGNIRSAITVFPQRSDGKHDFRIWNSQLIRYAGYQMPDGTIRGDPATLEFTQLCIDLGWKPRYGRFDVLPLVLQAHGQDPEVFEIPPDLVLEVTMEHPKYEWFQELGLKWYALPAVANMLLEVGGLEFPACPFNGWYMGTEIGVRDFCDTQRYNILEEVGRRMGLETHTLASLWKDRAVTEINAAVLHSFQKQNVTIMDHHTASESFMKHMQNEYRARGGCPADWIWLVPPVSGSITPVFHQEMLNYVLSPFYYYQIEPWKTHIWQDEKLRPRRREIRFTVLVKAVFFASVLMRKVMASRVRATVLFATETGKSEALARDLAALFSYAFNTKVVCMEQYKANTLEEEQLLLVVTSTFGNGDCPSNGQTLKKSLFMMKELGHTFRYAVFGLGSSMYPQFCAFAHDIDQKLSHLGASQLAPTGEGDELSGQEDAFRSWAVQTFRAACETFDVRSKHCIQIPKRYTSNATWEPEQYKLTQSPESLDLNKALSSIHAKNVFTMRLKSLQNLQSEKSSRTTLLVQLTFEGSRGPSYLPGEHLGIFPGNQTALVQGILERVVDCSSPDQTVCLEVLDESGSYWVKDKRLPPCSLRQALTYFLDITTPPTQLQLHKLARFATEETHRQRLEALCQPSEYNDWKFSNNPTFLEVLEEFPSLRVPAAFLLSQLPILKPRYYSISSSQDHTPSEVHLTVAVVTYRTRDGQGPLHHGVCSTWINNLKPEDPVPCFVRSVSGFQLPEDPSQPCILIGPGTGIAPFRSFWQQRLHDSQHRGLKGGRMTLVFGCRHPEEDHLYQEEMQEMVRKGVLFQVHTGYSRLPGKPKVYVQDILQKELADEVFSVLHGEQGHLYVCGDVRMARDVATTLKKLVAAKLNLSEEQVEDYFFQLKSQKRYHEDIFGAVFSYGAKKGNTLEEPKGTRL
Nitric oxide synthase 1, sequence (P29476 whole entry): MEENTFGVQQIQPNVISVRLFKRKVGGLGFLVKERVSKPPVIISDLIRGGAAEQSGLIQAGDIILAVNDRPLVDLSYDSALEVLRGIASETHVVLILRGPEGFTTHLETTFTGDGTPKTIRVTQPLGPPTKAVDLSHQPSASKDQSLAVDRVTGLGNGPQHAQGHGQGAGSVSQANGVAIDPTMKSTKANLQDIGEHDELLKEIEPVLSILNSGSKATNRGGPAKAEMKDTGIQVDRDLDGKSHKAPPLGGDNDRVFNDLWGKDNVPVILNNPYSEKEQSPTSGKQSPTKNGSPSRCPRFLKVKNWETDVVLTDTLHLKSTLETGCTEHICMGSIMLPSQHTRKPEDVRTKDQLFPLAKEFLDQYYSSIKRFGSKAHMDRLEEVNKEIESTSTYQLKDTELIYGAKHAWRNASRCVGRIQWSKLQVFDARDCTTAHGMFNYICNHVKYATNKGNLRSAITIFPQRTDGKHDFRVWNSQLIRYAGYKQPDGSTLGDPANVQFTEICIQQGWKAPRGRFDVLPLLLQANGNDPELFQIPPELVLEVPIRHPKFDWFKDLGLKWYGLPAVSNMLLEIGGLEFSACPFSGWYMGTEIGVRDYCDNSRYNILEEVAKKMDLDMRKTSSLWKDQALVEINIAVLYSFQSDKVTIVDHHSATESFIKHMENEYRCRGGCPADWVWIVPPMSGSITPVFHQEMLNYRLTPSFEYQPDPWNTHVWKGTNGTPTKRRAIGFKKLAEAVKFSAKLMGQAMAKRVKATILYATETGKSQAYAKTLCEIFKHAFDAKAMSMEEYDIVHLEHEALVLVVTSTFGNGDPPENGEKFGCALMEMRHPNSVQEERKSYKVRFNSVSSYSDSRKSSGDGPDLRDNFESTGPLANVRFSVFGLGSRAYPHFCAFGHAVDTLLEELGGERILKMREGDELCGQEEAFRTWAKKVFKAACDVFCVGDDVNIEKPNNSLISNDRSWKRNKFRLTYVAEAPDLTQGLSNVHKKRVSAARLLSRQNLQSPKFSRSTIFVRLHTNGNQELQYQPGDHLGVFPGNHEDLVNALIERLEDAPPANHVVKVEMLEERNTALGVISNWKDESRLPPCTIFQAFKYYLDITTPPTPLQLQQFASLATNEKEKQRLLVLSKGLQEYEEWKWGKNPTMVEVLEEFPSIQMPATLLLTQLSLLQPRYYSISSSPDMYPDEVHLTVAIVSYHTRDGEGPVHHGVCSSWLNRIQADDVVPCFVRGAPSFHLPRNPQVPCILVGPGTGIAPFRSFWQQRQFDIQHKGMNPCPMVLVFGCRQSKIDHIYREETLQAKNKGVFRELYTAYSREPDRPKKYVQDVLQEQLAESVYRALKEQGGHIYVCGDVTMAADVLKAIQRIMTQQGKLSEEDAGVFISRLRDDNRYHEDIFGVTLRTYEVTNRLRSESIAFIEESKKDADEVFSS

## CC(=N)NCc1cccc(CNC(=O)[C@@H]2CCCN2)c1.Cl.Cl
[1]
  half-life: 11 h
C6 [2]
  Activity: 27.21%
C6 [3]
  Activity: 12.12%
[4]
  half-life: > 24 h
C6 [5]
  growth at 1000 µM: 77.5%
C6 [6]
  Activity: 23.27%
C6 [7]
  growth at 1500 µM: 114%
[8]
  Activity: Non-Toxic
C6 [9]
  growth at 1000 µM: 118%
[10]
  inhibition: Active
[11]
  half-life: > 24 h
C6 [12]
  Activity: 71.79%
[13]
  Ratio IC50: 4570
C6 [14]
  Activity: 20.99%
C6 [15]
  inhibition: Dose-dependent effect
[16]
  viability at 48 h, 1000 µM: 125%
Nitric oxide synthase 1
  IC50: > 10000 nM
C6 [17]
  growth at 250 µM: 80.4%
[18]
  Ratio IC50: > 172
[19]
  viability at 24 h, 1000 µM: 122%
C6 [20]
  Activity: <=25.52%
C6 [21]
  Activity: 26.54%
C6 [22]
  growth at 1500 µM: 63.2%
[23]
  IC50: 58 nM
C6 [24]
  growth at 2000 µM: ≤ 89.5%
[25]
  half-life: > 24 h
